Laboratory results: patent publication US8338482B2, “Modulating notch1 signaling pathway for treating neuroendocrine tumors” (Wisconsin Alumni Research Foundation, priority 2007, dated 2012)

Columns and labels:
[1] = test system: Notch1; assay: CBF1 binding site luciferase reporter assay; format: cell-based, human; conditions: DAPT 50 μM pretreatment 45 minutes, then 4 mM VPA
Protocol: Luciferase Reporter Assays GI carcinoid tumor cells were transiently transfected with luciferase constructs as previously described (Kunnimalaiyaan, M. et al., Conservation of the Notch1 signaling pathway in gastrointestinal carcinoid cells A J Physiol Gastrointest Liver Physiol 2005; 289:G636-642). Wild-type (4xwtCBF1Luc; 2 μg) or mutant (4xmutCBF1Luc; 2 μg) CBF1-luciferase reporter plasmids were co-transfected with CMV-β-gal (0.5 μg) (Hsieh J J et al., Truncated Mammalian Notch1 Activates CBF1/RBPJk-Repressed Genes by a Mechanism Resembling That of Epstein-Barr Virus EBNA2. Mol Cell Biol 1996; 16:952-959). In experiments with the γ-secretase inhibitor, N-[N-(3,5-difluorophenacetyl)-L-alanyl]-S-phenylglycine t-butyl ester (DAPT; EMD Biosciences, Darmstadt, Germany), to inhibit Notch1 cleavage and activation, cells were pretreated for 45 minutes with DAPT (50 μM) then treated with 4 mM VPA. […] Luciferase levels were measured using a Monolight 2010 Luminometer (Analytical Luminescence Laboratory, San Diego, Calif.). […]

[2] = test system: MEK; assay: MEK inhibitors and Notch1-mediated hormone suppression; format: cell-based, human; conditions: PD098059 25-50 uM or U0126 5-20 uM pre-treatment
Protocol: 1) MEK inhibitors. BON, BON-Notch1, H727, H727-Notch1, TT, and TT-Notch1 cells are pre-treated with either PD098059 (25-50 uM) or U0126 (5-20 uM) (both well-characterized MEK inhibitors) (Sippel R S, et al., Am J Physiol Gastrointest Liver Physiol 2003; 285:G245-G254; Sippel R S, et al., Surgery 2003; 134:866-871), alone or in combination, followed by addition of control or doxycycline (1 μg) for 24, 48, and 96 hours. Cells are then analyzed with the following methods.
2) Confirmation of MEK inhibition. To confirm MEK inhibition after treatment with PD098059 and U0126, cellular extracts are analyzed by Western blots utilizing antibodies against MEK, phospho-MEK, ERK1/2, and phospho-ERK1/2. MAPK in vitro kinase assay with a commercially available kit (Cell Signal Technology) is used to confirm blockade of MEK activity.
3) hASH1 and NE marker expression. To determine if MEK inhibition blocks Notch1-mediated NE marker suppression, cellular extracts are analyzed using western blots with hASH1, chromogranin A, synaptophysin, and neuron-specific enolase, and serotonin or calcionin secretion will be assessed using an ELISA assay, as described above.

[3] = test system: BON human GI carcinoid cancer cells; assay: Western blot analysis of GI carcinoid cells; format: cell-based
Protocol: Cell Culture BON human GI carcinoid cancer cells, kindly provided by Drs. B. Mark Evers and Courtney M. Townsend, Jr.
Total protein concentrations were quantified with a bicinchoninic acid assay kit (Pierce Biotechnology, Rockford, Ill., USA). Denatured cellular extracts were resolved by SDS-PAGE, transferred to nitrocellulose membranes (Schleicher and Schuell, Keene, N.H., USA), blocked in milk, and incubated with appropriate antibodies. The antibody dilutions were: 1:1,000 for Notch1 (Santa Cruz Biotechnology, Santa Cruz, Calif., USA), mammalian achaete-scute homolog 1 (ASCL1; BD Biosciences, San Diego, Calif., USA), chromogranin A (Zymed Laboratories, San Francisco, Calif., USA), and cyclin D1 (Cell Signaling Technology, Danvers, Mass., USA), 1:2,000 for p21 (Cell Signaling Technology) and p27 (Santa Cruz Biotechnology), and 1:10,000 for glyceraldehyde-3-phosphate dehydrogenase (G3PDH; Trevigen, Gaithersburg, Md., USA). Horseradish peroxidase conjugated goat anti-rabbit or goat anti-mouse secondary antibodies (Pierce Biotechnology) were used depending on the source of the primary antibody. For visualization of the protein signal, Immunstar (Bio-Rad Laboratories, Hercules, Calif., USA) or SuperSignal West Femto (Pierce Biotechnology) kits were used per the manufacturer's instructions.
Cell Culture BON human gastrointestinal (GI) carcinoid tumor cells, kindly provided by Drs. B. Mark Evers and Courtney M. Townsend, Jr.
Total protein concentrations were quantified with a bicinchoninic acid assay kit (Pierce Biotechnology, Rockford, Ill.). Denatured cellular extracts were resolved by SDS-PAGE, transferred onto nitrocellulose membranes (Schleicher and Schuell, Keene, N H), blocked in milk, and incubated with appropriate antibodies. The antibody dilutions were: 1:1,000 for Notch1 (Santa Cruz Biotechnology, Santa Cruz, Calif.), mammalian achaete-scute homolog 1 (ASCL1; BD Biosciences, San Diego, Calif.), chromogranin A (Zymed Laboratories, San Francisco, Calif.), and cyclin D1 (Cell Signaling Technology, Danvers, Mass.), 1:2,000 for p21 (Cell Signaling Technology) and p27 (Santa Cruz Biotechnology), and 1:10,000 for glyceraldehyde-3-phosphate dehydrogenase (G3PDH; Trevigen, Gaithersburg, Md.). Horseradish peroxidase conjugated goat anti-rabbit or goat anti-mouse secondary antibodies (Pierce Biotechnology) were used depending on the source of the primary antibody. For visualization of the protein signal, Immunstar (Bio-Rad Laboratories, Hercules, Calif.) or SuperSignal West Femto (Pierce Biotechnology) kits were used per the manufacturer's instructions.

[4] = test system: H727 human lung carcinoid cancer cells; assay: Western blot analysis of pulmonary carcinoid cells; format: cell-based
[5] = test system: carcinoid tumor cells; conditions: cited from earlier work
[6] = test system: hASH1; conditions: small cell lung cancer cells; cited from earlier work

C[C@H](NC(=O)Cc1cc(F)cc(F)c1)C(=O)N[C@H](C(=O)OC(C)(C)C)c1ccccc1 [DAPT, N-[N-(3,5-difluorophenacetyl)-L-alanyl]-S-phenylglycine t-butyl ester]
effect of VPA on CBF1 binding [1]: blocked the effect of VPA on CBF1 binding

COc1cccc(-c2cc(=O)c3ccccc3o2)c1N [PD098059]
Notch1-mediated hormone suppression [2]: block

O=C(CCCCCCC(=O)Nc1ccccc1)NO [SAHA, suberoylanilide hydroxamic acid]
ASCL1 protein ([3]; 30 μM, 2 days): undetectable level | ASCL1 protein ([3]; SBHA/SAHA treatment, 48 hours): dose-dependent decrease | chromogranin A level ([3]; SBHA/SAHA, 2 days of treatment): only modest inhibition | chromogranin A level ([4]; 50 μM, 2 days): complete suppression | concentrations at which significant Notch1 induction was seen ([4]; 48 hours): 20 to 30 µM | ASCL1 protein ([4]; SBHA/SAHA treatment, 48 hours): dose-dependent decrease

N#CC(=C(/N)Sc1ccccc1N)/C(C#N)=C(\N)Sc1ccccc1N [U0126]
Notch1-mediated hormone suppression [2]: block

CCCC(=O)[O-].[Na+] [sodium butyrate]
cyclin D1 [5]: concomitant downregulation | p21 and p27 [5]: increase

CC(/C=C/C(=O)NO)=C\[C@@H](C)C(=O)c1ccc(N(C)C)cc1 [trichostatin A]
cyclin D1 [5]: concomitant downregulation | p21 and p27 [5]: increase

c5p25: hASH1 anti-sense oligonucleotide 5′-UCCUACUAAGGCUGC-3′ (SEQ ID NO: 2) (listed as RNA, chemistry not given here)
hASH1 expression [6]: minimal hASH1 inhibitory activity

c5p1476: hASH1 anti-sense oligonucleotide 5′-GGAGCCCACUGCUUU-3′ (SEQ ID NO: 1), directed at the hASH1 3′UTR (listed as RNA, chemistry not given here)
hASH1 expression [6]: very potent inhibitor

c5pMiss1: missense oligonucleotide 5′-GCUACAUCUGGUCGC-3′ (SEQ ID NO: 3) (listed as RNA, chemistry not given here)
hASH1 expression [6]: no affect

c5pMiss2: missense oligonucleotide 5′-CACUGAUGCACCUGU-3′ (SEQ ID NO: 4) (listed as RNA, chemistry not given here)
hASH1 expression [6]: no affect
